Patent US20120148680A1, “EYE CREAM AND PREPARATION METHOD” (MAYINGLONG PHARMACEUTICAL GROUP CO., LTD, priority 2010, published 2012)

Tested on: red blood cells
Assay: Stimulation test, Red Blood Cell (RBC) test system, INVITTOX n° 37
Type: cell-based
Details: relative to SDS
Experimental: Experimental method: Refer to ECVAM DB-ALM: INVITTOX protocol; Red Blood Cell Test System INVITTOX n° 37, hereinafter referred to as RBC test system.
The basic principle of the RBC test system is to determine the damage on the cell membrane caused by chemicals and the change of cell membrane permeability resulted from it. The damage degree of the cell membrane, which is directly related to the stimulation of a product, is evaluated through determining the amount of hemoglobin leaked from red blood cells.
The absorbance of red blood cell suspension after exposure to the chemicals is determined by spectrophotometric method, then the hemolysis rate and HSO value (i.e. the concentration value of the test substance, 50% of red blood cells of which develop hemolysis) can be calculated. The HSO value and the results of two grading standards in Draize test, i.e. the maximum average Draize total score (MAS) and the 24 h after application and scores of composition parameters (cornea, conjunctiva and iris) thereof are subjected to correlation analysis to show good consistency. At the same concentration, the higher the hemolysis rate of the sample is, the stronger the stimulation of the sample is.
The stimulation ratio of each sample is as shown in the following table relative to SDS after the comparison of the SDS stimulation ratio: […]

`CCCCCCCCCCCCOS(=O)(=O)[O-].[Na+]` [SDS control substance, SDS] was tested, and the Stimulation ratio was 100%.
